Source: article PMC7190724, “Improved GPCR ligands from nanobody tethering” (Nature Communications, 2020)
Values joined by “and” are separate entries in the source; they are usually repeats but may differ in a detail not shown here. Identical values can stand only once. Where a SMILES comes first, the peptide text is derived from it. [ ]: non-standard residue; d: D form. Aib = CC(C)(N)C(=O)O

Assays:
[1] = target: T1, hPTHR2 (Homo sapiens, UniProt P49190); experiment: cAMP response (GloSensor luminescence), HEK293 stably expressing hPTHR2; type: cell-based; details: for EC50: peak GloSensor luminescence, mean ± SD, n = 3-4, read-out: EC50, cAMP induction
T1 construct: expressed in transfected cells
Experimental: (§1) These assays were performed as previously described. Briefly, HEK-293-derived cell lines that stably express the Glosensor cAMP reporter (Promega Corp.)[30] and PTHR1, a PTHR1 variant, or PTHR2 were seeded into white sided 96-well plates (50,000 cells/well) and grown to confluency. Confluent monolayers of cells were pre-incubated with CO2 independent medium containing D-luciferin (0.5 mM) at 37 °C until a stable baseline level of luminescence was established (20 min). Varying concentrations of ligands were then added, and the time course of luminescence response was recorded using BioTek plate reader. The maximal luminescence response (observed 12–16 min after ligand addition) was used to construct dose-response data sets (Table 1, Supplementary Fig. 6).
(§2) Data were processed using Microsoft Excel and GraphPad Prism 6. Data from cAMP dose–response assays were analyzed using a sigmoidal dose–response model with variable slope. Data sets were statistically compared by using Student’s t test (two-tailed) assuming unequal variances for the two sets.

[2] = target: T2, PTHR1GFP (Homo sapiens, UniProt Q03431); experiment: cAMP response (GloSensor luminescence), HEK293 stably expressing PTHR1GFP (GPG10); type: cell-based
T2 sequence (Q03431 27-593): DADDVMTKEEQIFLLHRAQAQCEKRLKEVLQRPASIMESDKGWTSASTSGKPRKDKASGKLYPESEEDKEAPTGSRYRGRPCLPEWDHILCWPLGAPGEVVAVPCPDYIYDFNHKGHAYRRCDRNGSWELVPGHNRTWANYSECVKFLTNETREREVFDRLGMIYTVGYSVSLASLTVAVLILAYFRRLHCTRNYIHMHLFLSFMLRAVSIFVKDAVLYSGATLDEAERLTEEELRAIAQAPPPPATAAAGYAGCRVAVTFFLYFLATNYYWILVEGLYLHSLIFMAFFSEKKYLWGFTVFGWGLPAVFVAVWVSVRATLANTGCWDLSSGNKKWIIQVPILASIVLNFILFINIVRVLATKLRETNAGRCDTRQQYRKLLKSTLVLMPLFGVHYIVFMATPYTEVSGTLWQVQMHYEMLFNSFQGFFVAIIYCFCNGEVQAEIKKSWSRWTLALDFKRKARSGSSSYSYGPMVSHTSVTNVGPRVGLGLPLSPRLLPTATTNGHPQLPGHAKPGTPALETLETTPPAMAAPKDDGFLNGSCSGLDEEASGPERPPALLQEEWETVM
Experimental: as §1, §2
Supplementary Figure 1. […]
GFP variant known as pHluorin2 engrafted into the receptor(ref. 19, main text). c) HEK293 cells stably expressing PTHR1-GFP were treated with varied doses of the indicated peptides or conjugates and activation was assessed by measuring luminescence from a cAMP-activated luciferase variant. Values listed represent EC50 values (mean ± SD). Each value comes from ≥ 3 independent experiments. Further details, including the number of replicates for each measurement and the normalized maximal responses induced, are reported in Supplementary Table 1. […]
than 5% of the maximal response induced for that cell line.
Peptide or conjugate PTHR1GFP

[3] = target: T3, PTHR1YFPΔECD (Homo sapiens, UniProt Q03431); experiment: cAMP response (GloSensor luminescence), HEK293 stably expressing PTHR1YFPΔECD (GD5Y); type: cell-based; details: peak GloSensor luminescence; mean ± SD, ≥3 independent experiments; read-out: EC50, cAMP induction
T3 construct: expressed in transfected cells; host or cells: HEK293 (clone GD5Y) with GloSensor cAMP reporter
T3 sequence (Q03431 with tags, fused parts or gaps limits assumed): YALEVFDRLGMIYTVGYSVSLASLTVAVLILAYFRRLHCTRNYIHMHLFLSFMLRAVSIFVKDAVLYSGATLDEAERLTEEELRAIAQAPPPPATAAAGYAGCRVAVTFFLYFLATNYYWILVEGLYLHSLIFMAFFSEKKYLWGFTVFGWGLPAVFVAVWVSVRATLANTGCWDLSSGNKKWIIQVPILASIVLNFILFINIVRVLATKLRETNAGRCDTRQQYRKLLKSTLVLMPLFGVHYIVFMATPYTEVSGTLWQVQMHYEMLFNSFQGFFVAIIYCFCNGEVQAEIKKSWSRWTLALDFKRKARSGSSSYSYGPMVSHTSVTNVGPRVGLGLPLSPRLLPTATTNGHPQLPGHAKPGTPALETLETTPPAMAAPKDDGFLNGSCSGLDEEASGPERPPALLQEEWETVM
Experimental: (§3) A HEK293 cell line stably expressing β-Arrestin2-YFP (GBR24) was constructed similarly. PTHR1_6E was produced using the Q5 Site-directed mutagenesis kit (NEB) and used to prepare a stably transfected HEK293-derived cell line. Annotated sequence data for all PTHR1 constructs are found in Supplementary Fig. 19. Aligned sequences of VHHs used in this study are shown in Supplementary Fig. 20.
(§4) These assays were performed as previously described. […] Confluent monolayers of cells were pre-incubated with CO2 independent medium containing D-luciferin (0.5 mM) at 37 °C until a stable baseline level of luminescence was established (20 min). Varying concentrations of ligands were then added, and the time course of luminescence response was recorded using BioTek plate reader.
as §2

[4] = target: T4, hPTHR1 (Homo sapiens, UniProt Q03431); experiment: cAMP response (GloSensor luminescence), HEK293 stably expressing human PTHR1 (GP2.3); type: cell-based; details: human PTHR1 cells
T4 construct: expressed in transfected cells; host or cells: HEK293 (clone GP2.3) with GloSensor cAMP reporter
T4 sequence (Q03431 27-593): T2 sequence (Q03431 27-593)
Experimental: as §3, §4, §2

[5] = system: blood ionized calcium; experiment: Calcemic response in mice (blood ionized calcium); type: in vivo, mouse; details: for iCa measurement, blood ionized calcium: individual mouse
Experimental: Fig. 5 VHH conjugation potentiates an in vivo response. a Schematic of the experiment performed in mice. b Measurement of blood ionized calcium levels in mice injected with PTH and conjugates. Data presented is from a single experiment. The double line break represents a discontinuity in the Y-axis. Mice (CD1 females, 11 weeks) were injected subcutaneously with the indicated ligand (dose = 35 nmol/kg). Blood was drawn at the indicated time points and analyzed for ionized calcium levels. Data points indicate mean ± standard error of the mean (SEM), n = 4. A two-sided t-test without corrections for multiple comparisons was used for comparisons. *p = 0.005 vs. vehicle. ^#p = 0.015 vs. vehicle. ^●p = 0.038 vs. M-PTH(1-14). °p = 0.008 vs. M-PTH(1-14). The sequence of M-PTH(1-14) used here differs from PTH(1-14) in Fig. 2 and is UVUEIQLMHQXAKW where U is Aib and X is homoarginine. Source data are provided in the Source Data File. […] Traces for the calcemic responses of individual mice is found in Supplementary Fig. 18. Source data can be found in the Source Data file.
Mice (CD1 female, age 11 weeks) were treated in accordance with the ethical guidelines adopted by Massachusetts General Hospital. […] Peptides and conjugates were administered at doses that allowed for differentiation between compounds with differing levels of in vivo activity. Statistical analyses were performed assuming Gaussian distribution of data. Mice (n = 4 per compound) were injected subcutaneously with vehicle (10 mM citric acid/150 mM NaCl/0.05% Tween-80, pH 5.0) or vehicle containing PTH or conjugate at a dose of 35 nmol/kg body weight. […] Blood was withdrawn just before injection (t = 0) or at times thereafter. Tail vein blood was collected and immediately analyzed. Blood Ca^2+ concentration was measured with a Siemens RapidLab 348 Ca2+/pH analyzer.

T1 sequence (P49190 25-550): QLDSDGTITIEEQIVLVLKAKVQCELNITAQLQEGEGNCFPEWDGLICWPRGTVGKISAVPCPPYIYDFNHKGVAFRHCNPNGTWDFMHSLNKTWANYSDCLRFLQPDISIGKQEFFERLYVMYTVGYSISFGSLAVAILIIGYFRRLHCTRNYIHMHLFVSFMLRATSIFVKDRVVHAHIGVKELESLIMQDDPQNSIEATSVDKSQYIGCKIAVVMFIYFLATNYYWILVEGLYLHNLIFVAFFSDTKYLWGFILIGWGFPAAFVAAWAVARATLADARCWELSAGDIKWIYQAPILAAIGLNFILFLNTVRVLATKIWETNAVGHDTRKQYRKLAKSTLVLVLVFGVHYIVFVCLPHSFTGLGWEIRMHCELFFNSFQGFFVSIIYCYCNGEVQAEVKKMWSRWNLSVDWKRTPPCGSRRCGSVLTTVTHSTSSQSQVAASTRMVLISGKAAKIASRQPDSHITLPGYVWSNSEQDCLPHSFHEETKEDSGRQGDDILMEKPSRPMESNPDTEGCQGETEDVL

With CC[C@H](C)[C@H](NC(=O)[C@H](CCC(=O)O)NC(=O)C(C)(C)NC(=O)[C@@H](NC(=O)[C@H](C)N)C(C)C)C(=O)N[C@@H](CCC(N)=O)C(=O)N[C@@H](CC(C)C)C(=O)N[C@@H](CCSC)C(=O)N[C@@H](Cc1c[nH]cn1)C(=O)N[C@@H](CCC(N)=O)C(=O)N[C@@H](CCCNC(=N)N)C(=O)N[C@@H](CS)C(N)=O [PTH(1-11)] (H-AV[Aib]EIQLMHQRC-NH2) the “response at 100 uM” value ([1]; 100 uM) was 20%, the EC50 [1] was greater than 100000 nM and the EC50 [2] was 79 ± 45 nM. The EC50 [3] was 246 nM.

With CC[C@H](C)[C@H](NC(=O)[C@H](CCC(=O)O)NC(=O)[C@H](CO)NC(=O)[C@@H](NC(=O)[C@@H](N)CO)C(C)C)C(=O)N[C@@H](CCC(N)=O)C(=O)N[C@@H](CC(C)C)C(=O)N[C@@H](CCSC)C(=O)N[C@@H](Cc1c[nH]cn1)C(=O)N[C@@H](CC(N)=O)C(=O)N[C@@H](CC(C)C)C(=O)NCC(=O)N[C@@H](CCCCN)C(=O)N[C@@H](Cc1c[nH]cn1)C(=O)N[C@@H](CC(C)C)C(=O)N[C@@H](CC(N)=O)C(=O)N[C@@H](CO)C(=O)N[C@@H](CCSC)C(=O)N[C@@H](CCC(=O)O)C(=O)N[C@@H](CCCNC(=N)N)C(=O)N[C@H](C(=O)N[C@@H](CCC(=O)O)C(=O)N[C@@H](Cc1c[nH]c2ccccc12)C(=O)N[C@@H](CC(C)C)C(=O)N[C@@H](CCCNC(=N)N)C(=O)N[C@@H](CCCCN)C(=O)N[C@@H](CCCCN)C(=O)N[C@@H](CC(C)C)C(=O)N[C@@H](CCC(N)=O)C(=O)N[C@@H](CC(=O)O)C(=O)N[C@H](C(=O)N[C@@H](Cc1c[nH]cn1)C(=O)N[C@@H](CC(N)=O)C(=O)N[C@@H](Cc1ccccc1)C(=O)N[C@@H](CS)C(N)=O)C(C)C)C(C)C [PTH(1-34)] the EC50 [1] was 1.45 ± 2.42 nM, the EC50 [2] was 0.4 ± 0.8 nM and the EC50 [3] was > 500 nM and 689 nM.

With “G3-PTH(1-14): PTH(1-14) analog with an N-terminal triglycine extension (SVSEIQLMHNLGKH; N-terminal triglycine extension; UniProt P01270 32-45, looked up, fragment)” the “cAMP activity” value [4] was “reduction in potency”.

In the case of “UVUEIQLMHQXAKW [M-PTH(1-14), modified PTH(1-14) analog used in mice, UVUEIQLMHQXAKW, U is Aib and X is homoarginine]”, the “blood ionized calcium response” value ([5]; 35 nmol/kg s.c., CD1 female mice, n = 4, single experiment) is reported as “little if any activity”, the “iCa measurement, blood ionized calcium” value ([5]; 1 h after 35 nmol/kg s.c., 1st of 4 in group (mouse # 5, 9, 13)) is reported as 1.36 mM and the “iCa measurement, blood ionized calcium” value ([5]; 1 h after 35 nmol/kg s.c., 2nd of 4 in group (mouse # 6, 10, 14)) is reported as 1.34 mM. For the same molecule, the “iCa measurement, blood ionized calcium” value ([5]; 1 h after 35 nmol/kg s.c., 3rd of 4 in group (mouse # 7, 11, 15)) was 1.29 mM, the “iCa measurement, blood ionized calcium” value ([5]; 1 h after 35 nmol/kg s.c., 4th of 4 in group (mouse # 8, 12, 16)) was 1.33 mM and the “iCa measurement, blood ionized calcium” value ([5]; 2 h after 35 nmol/kg s.c., 1st of 4 in group (mouse # 5, 9, 13)) was 1.31 mM. The “iCa measurement, blood ionized calcium” value ([5]; 2 h after 35 nmol/kg s.c., 2nd of 4 in group (mouse # 6, 10, 14)) was 1.32 mM, the “iCa measurement, blood ionized calcium” value ([5]; 2 h after 35 nmol/kg s.c., 3rd of 4 in group (mouse # 7, 11, 15)) was 1.27 mM and the “iCa measurement, blood ionized calcium” value ([5]; 2 h after 35 nmol/kg s.c., 4th of 4 in group (mouse # 8, 12, 16)) was 1.28 mM. For the same molecule, the “ionized Ca, group value quoted by reviewer” value ([5]; 2h after injection, 35 nmol/kg s.c.) was 1.29 mM, the “iCa measurement, blood ionized calcium” value ([5]; 4 h after 35 nmol/kg s.c., 1st of 4 in group (mouse # 5, 9, 13)) was 1.31 mM and the “iCa measurement, blood ionized calcium” value ([5]; 4 h after 35 nmol/kg s.c., 2nd of 4 in group (mouse # 6, 10, 14)) was 1.33 mM. For the same molecule, the “iCa measurement, blood ionized calcium” value ([5]; 4 h after 35 nmol/kg s.c., 3rd of 4 in group (mouse # 7, 11, 15)) was 1.29 mM, the “iCa measurement, blood ionized calcium” value ([5]; 4 h after 35 nmol/kg s.c., 4th of 4 in group (mouse # 8, 12, 16)) was 1.29 mM and the “iCa measurement, blood ionized calcium” value ([5]; 8 h after 35 nmol/kg s.c., 1st of 4 in group (mouse # 5, 9, 13)) was 1.33 mM. The “iCa measurement, blood ionized calcium” value ([5]; 8 h after 35 nmol/kg s.c., 2nd of 4 in group (mouse # 6, 10, 14)) was 1.30 mM, the “iCa measurement, blood ionized calcium” value ([5]; 8 h after 35 nmol/kg s.c., 3rd of 4 in group (mouse # 7, 11, 15)) was 1.28 mM and the “iCa measurement, blood ionized calcium” value ([5]; 8 h after 35 nmol/kg s.c., 4th of 4 in group (mouse # 8, 12, 16)) was 1.30 mM.
